Assay results taken from US20140088144A1, “INHIBITING MICROBIAL INFECTIONS” (THE UNIVERSITY OF KANSAS, priority 2012, published 2014).

Columns and labels:
[1] = tested on: L-929 cells; assay: AlamarBlue metabolic activity / viability assay; assay type: cell-based, mouse
Procedure: AlamarBlue® assays were performed as a control to test whether SE-1 had any impact on the metabolic activity of the host cells, as follows: L-929 cells were seeded into 96-well plates and grown overnight to ˜90% confluency. SE-1 was serially diluted in RPMI supplemented with 10 μg/ml gentamycin and 5% FBS, added to the wells, and incubated at 37° C. for 3 h. Cells were washed with 200 μl Hank's buffered salt solution (Mediatech) and incubated with 200 μl RPMI (without phenol red) containing 10% AlamarBlue® (also known as Resazurin, Invitrogen, Grand Island, N.Y.). Following 8 h incubation at 37° C., the absorbance was measured at 570 nm and 600 nm using a PowerWave XS plate reader, and the metabolic activity of the cells (as a percentage of untreated controls) was calculated using the following formula provided by the manufacturer: (117,216×A570−80,586×A600)/(117,216×A′570−80,586×A′600)×100, where A is the absorbance of test wells, and A′ is the absorbance of positive control wells (mock-infection).

[2] = biological target: T1, MBP-Rns (Escherichia coli, UniProt P16114); assay: EMSA in vitro DNA binding by MBP-Rns; assay type: biochemical, Enterotoxigenic E. coli
T1 construct: made in house
Source text: FIGS. 9A-9B show inhibition of MBP-Rns and MBP-VirF by Compound 1. Quantification of EMSA of MBP-Rns (FIG. 9A) or example EMSA of MBP-VirF (FIG. 9B) DNA binding with the indicated inhibitor concentrations [micromolar]. F is Free DNA.
The compounds of the invention can be used for inhibition of virulence in vivo and in vitro activation by Rns and VirF.

[3] = biological target: VirF (Shigella flexneri, UniProt P0A2T1); assay: In vivo dose-response, VirF-activated virB-lacZ fusion in E. coli; assay type: cell-based; parameters: expressed in transfected cells; host or cells: E. coli SME4382 (virB-lacZ, pHG165virF)
Source text: For dose-response studies, a virB-lacZ reporter strain was constructed that allowed IPTG (isopropyl-β-D-thiogalactopyranoside) induced expression of VirF from plasmid pHG165. To construct this virB-lacZ reporter strain, kMAD102 was isolated from strain AB97, used to infect strain ECL116, and single copy lysogens were identified. Plvir-mediated generalized transductions were then used to add malP::lacI^q and recA::cat to this strain, as described previously. The virF gene was amplified (Forward oligo, Reverse oligo), digested with EcoRI and PstI and then ligated into the same sites of plasmid pHG165. The resulting plasmid, pHG165virF was transformed into SME4259 to make SME4382 (FIG. 20, Top). A control strain, SME3359, which carries a single copy hts-lacZ reporter fusion in the chromosome and a plasmid pHG165lacI that expresses LacI protein (FIG. 20, Bottom), was constructed. Briefly, the hts-lacZ reporter fusion consists of a synthetic promoter that is repressed by Lad.
In vivo dose-response assays were performed using a procedure described previously. […] Bacterial cultures were mixed with varying concentrations of SE-1 (2.2% DMSO, final), induced with 6.5 mM IPTG for 3 h at 37° C., lysed and β-galactosidase activity was measured. […] IC50 values were calculated and graphs were drawn using Prism (GraphPad, La Jolla, Calif.).

[4] = tested on: gapA; assay: Shigella gene expression qRT-PCR, internal control gapA; assay type: cell-based, S. flexneri; details: for Average ΔΔCt / Ct / RQ (2^−ΔΔCt) / ΔΔCt^2 (normalized to rrsA): gapA, example data
Procedure: Real-time quantitative reverse transcription PCR (qRT-PCR) was performed to test the effects of SE-1 on the expression of the VirF regulated genes virB, icsA, icsB and ipaB. The gapA and rrsA transcripts were used as internal controls. These are constitutively expressed Shigella genes commonly used to normalize mRNA levels. S. flexneri strain SME4331, which carries a null mutation in ipgD (ipgD), was grown at 30° C. overnight in TSB with ampicillin, diluted into the same medium to an OD600 of ˜0.1, and 1 ml aliquots further grown at 30° C. (DMSO only) or at 37° C. (SE-1 at 20 or 40 μM, or DMSO only, all 0.3% DMSO). Cells were grown to an OD600 of 1.0 (˜2.5 h) and RNA was isolated using an RNeasy MiniElute Cleanup Kit (Qiagen, Germantown, Md.), with DNA contamination eliminated using a Turbo DNase Kit (Ambion, Austin, Tex.). Complementary DNA (cDNA) was synthesized by random priming using a cDNA Reverse Transcription Kit (Applied Biosystems, Foster City, Calif.). Primers were tested for PCR specificity using genomic DNA template to ensure a single amplicon of the expected size for each primer pair, and validated using 5-fold dilutions of cDNA (2000 to 0.0256 ng) to ensure a linear plot of cycle threshold (Ct) versus cDNA concentration. Validated primer sets were used to test mRNA profiles in reactions that contained 10 ng of cDNA, 10 μl of SYBR green master mix (Applied Biosystems), specific primers (0.5 μM each) and water to a final volume of 20 μl, using a Step One Plus Real-Time PCR System (Applied Biosystems). The data was analyzed using the 2^−ΔΔCt method, and also by Applied Biosystems real-time analysis software. […] In brief, ΔΔCt values [ΔΔCt=(Ct,Target−Ct,Internal Control)SE-1−(Ct,Target−Ct,Internal Control)no SE-1] were separately obtained for each sample relative to two internal controls, gapA and rrsA. The ΔΔCt values relative to the two internal controls for each sample were averaged and then used to calculate the relative expression levels (2^−ΔΔCt). As a control, we also normalized each internal control to the other internal control. Control reactions used templates generated without reverse transcriptase to ensure low genomic DNA contamination. To ensure that products were not likely to be due to primer dimer artifacts, additional control samples were performed in which reaction mixtures contained primers alone (no template).

VirF, sequence (P0A2T1 whole entry, the tested form may be a part): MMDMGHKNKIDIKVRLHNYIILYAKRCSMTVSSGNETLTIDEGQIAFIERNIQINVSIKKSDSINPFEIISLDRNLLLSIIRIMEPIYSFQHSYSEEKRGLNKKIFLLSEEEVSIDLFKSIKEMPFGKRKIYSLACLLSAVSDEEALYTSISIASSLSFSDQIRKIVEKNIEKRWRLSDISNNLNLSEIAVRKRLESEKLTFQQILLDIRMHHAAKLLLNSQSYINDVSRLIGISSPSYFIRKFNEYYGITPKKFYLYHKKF
T1 sequence (P16114 whole entry): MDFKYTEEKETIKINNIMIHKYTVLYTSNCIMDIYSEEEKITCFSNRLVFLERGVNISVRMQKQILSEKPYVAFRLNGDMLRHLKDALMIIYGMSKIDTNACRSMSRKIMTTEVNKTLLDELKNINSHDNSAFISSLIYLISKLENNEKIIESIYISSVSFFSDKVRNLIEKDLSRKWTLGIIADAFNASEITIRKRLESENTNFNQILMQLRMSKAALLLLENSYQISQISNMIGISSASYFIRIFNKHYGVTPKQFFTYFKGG

## CCCCN1C=C(c2ccc3ccccc3n2)C(C[N+](=O)[O-])c2ccccc21 (centres unmarked) [Compound 1, 1-butyl-4-(nitromethyl)-3-quinolin-2-yl-4H-quinoline]
[1]; 40 μM SE-1
  host cell viability: no effect
[1]; 0.2 and 0.4 μM SE-1
  viability of L-929 cells: did not detectably decrease the viability
[2]
  inhibition of in vitro DNA binding by purified Rns: similarly inhibits
[3]; IC50, virB-lacZ reporter fusion expression, E. coli strain with plasmid-expressed VirF
  IC50: ~8 µM
[3]; compared with full-length RhaS
  inhibition of in vivo activation by VirF: similar, if not greater, extent than full-length RhaS
[4]; 40 μM SE-1, normalized to rrsA
  expression of control gene gapA: no decrease
[4]; SE-1 20 μM
  Average ΔΔCt: 1
  Ct: 27.33
  RQ (2^−ΔΔCt): 0.5
  ΔΔCt^2 (normalized to rrsA): 1
[4]; SE-1 40 μM
  Average ΔΔCt: −0.69
  Ct: 26.76
  RQ (2^−ΔΔCt): 0.62
  ΔΔCt^2 (normalized to rrsA): −0.69
